Data on ten molecules can be found in ChEMBL document CHEMBL1201862, “PubChem BioAssay data set” (2004).

Test systems include SN12C; DU-145; MDA-MB-231; KM12; A498; OVCAR-5; M14; EKVX; HOP-92; HCT-15; UO-31; SK-MEL-2; NCI-H460; MOLT-4; SF-295; SW-620; MDA-N; SK-MEL-5; K562; OVCAR-3.
Holding throughout (test): inhibition of tumour cell growth, NCI panel, 48 h

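Five concentrations, 48 hours, 96-well plates. The concentration for 50% growth inhibition is given as GI50.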 Calls of active or inactive are those of the source. Rule as the data show it: active = GI50 up to about 1.1 µM and inactive = higher. Some results are limits rather than exact numbers.

Take `CCOC(=O)/C=C(\C(=O)OCC)n1ccc(=O)n(Cc2cn(COCCOC(C)=O)nn2)c1=O`: the GI50 is 20.7 µM (inactive) in the assay with SN12C; 38.8 µM (inactive) in the assay with DU-145; 20.2 µM (inactive) in the assay with MDA-MB-231; 29.6 µM (inactive) with KM12; > 54.3 µM (inactive) in the assay on A498; 23.4 µM (inactive) in the assay with OVCAR-5. For the same molecule, the GI50 is 39.8 µM (inactive) with M14; 19.9 µM (inactive) in the assay with EKVX; 19 µM (inactive) with HOP-92; 18.9 µM in the assay with HCT-15; 17.7 µM (inactive) in the assay on UO-31; 20.8 µM (inactive) in the assay with SK-MEL-2. The GI50 with NCI-H460 was > 38.1 µM (inactive); in the assay on MOLT-4 it was 14.9 µM (inactive); in the assay on SF-295 it was > 100 µM (inactive); in the assay on SW-620 it was 9.18 µM (inactive); in the assay with MDA-N it was 35.2 µM (inactive); in the assay on SK-MEL-5, 21.5 µM (inactive). Further, the values for the GI50 with K562 and in the assay with OVCAR-3 were 24 µM (inactive) and 23.2 µM (inactive), respectively.
Regarding `COc1cc2ccc(C(C)NCC#N)cc2cc1OC` (stereo not given), the GI50 in the assay with SN12C, with DU-145, with MDA-MB-231, with KM12, with A498 and with OVCAR-5 was > 100 µM (inactive) in each case. The GI50 is > 100 µM (inactive) in the assay on M14; > 100 µM (inactive) in the assay on EKVX; > 100 µM (inactive) with HOP-92; greater than 100 µM in the assay with HCT-15; > 100 µM (inactive) in the assay on UO-31; > 100 µM (inactive) in the assay with SK-MEL-2. Also, the GI50 with NCI-H460 was > 100 µM (inactive); with MOLT-4, 28.8 µM (inactive); in the assay on SF-295 it was > 100 µM (inactive); in the assay on SW-620, > 100 µM (inactive); with MDA-N, > 100 µM (inactive); in the assay on SK-MEL-5, > 100 µM (inactive). The GI50 with K562 and in the assay with OVCAR-3 was > 100 µM (inactive) throughout.
With `CC(=O)OC1C2CCC3CC2C2(SCCS2)C31` (stereo not given), the GI50 was > 100 µM (inactive) in the assay on SN12C; > 100 µM (inactive) in the assay with DU-145; 51.9 µM (inactive) in the assay on MDA-MB-231; > 100 µM (inactive) with KM12; > 100 µM (inactive) in the assay on A498; > 100 µM (inactive) in the assay with OVCAR-5. Moreover, the GI50 was > 100 µM (inactive) in the assay on M14; > 100 µM (inactive) in the assay with EKVX; > 100 µM (inactive) in the assay on HOP-92; greater than 100 µM with HCT-15; > 100 µM (inactive) in the assay with UO-31; > 100 µM (inactive) in the assay on SK-MEL-2. Further, the GI50 in the assay with NCI-H460, in the assay with MOLT-4, in the assay with SF-295, in the assay with SW-620, in the assay on MDA-N and in the assay with SK-MEL-5 was > 100 µM (inactive) in each case. Also, the GI50 in the assay with K562 and in the assay on OVCAR-3 was > 100 µM (inactive) throughout.
Consider `Ic1ccc2c(c1)N(c1ccccc1)c1cc([N-]c3ccc4nc5ccc(I)cc5[n+](-c5ccccc5)c4c3)ccc1N2`, for which the GI50 was > 100 µM (inactive) with SN12C; > 100 µM (inactive) in the assay on DU-145; 23.7 µM (inactive) in the assay with MDA-MB-231; 44.2 µM (inactive) in the assay with KM12; > 100 µM (inactive) in the assay on A498; > 100 µM (inactive) in the assay on OVCAR-5. Besides, the GI50 with M14 is 26.9 µM (inactive); with EKVX, 32.2 µM (inactive); with HOP-92, > 100 µM (inactive); with HCT-15, greater than 100 µM; with UO-31, > 100 µM (inactive); with SK-MEL-2 it was > 100 µM (inactive). Also, the GI50 in the assay on NCI-H460 is 42 µM (inactive); with MOLT-4 it was 68.9 µM (inactive); with SF-295, > 100 µM (inactive); in the assay with SW-620, 51.9 µM (inactive); in the assay on MDA-N it was 37.6 µM (inactive); in the assay on SK-MEL-5, 33.4 µM (inactive). For the same molecule, the GI50 in the assay on K562 is 35 µM (inactive); in the assay on OVCAR-3, 2.92 µM (inactive).
For the molecule `O=C1C(Cl)=C(N2CCN(c3ncccn3)CC2)C(=O)c2c(O)ccc(O)c21`, the GI50 in the assay with SN12C is 1.85 µM (inactive); in the assay with DU-145 it was 4.34 µM (inactive); in the assay with MDA-MB-231 it was 2.15 µM (inactive); in the assay with KM12 it was 4.43 µM (inactive); with A498, 2.9 µM (inactive); in the assay on OVCAR-5 it was 7.91 µM (inactive). For the same molecule, the GI50 with M14 was 1.88 µM (inactive); in the assay with EKVX it was 11.4 µM (inactive); in the assay with HOP-92, 2.37 µM (inactive); in the assay with HCT-15 it was 1.59 µM; with UO-31, 2.07 µM (inactive); in the assay on SK-MEL-2, 1.03 µM (active). Also, the GI50 is 15.3 µM (inactive) with NCI-H460; 0.697 µM (active) with MOLT-4; 12.4 µM (inactive) with SF-295; 1.36 µM (inactive) with SW-620; 1.78 µM (inactive) with MDA-N; 2.17 µM (inactive) in the assay with SK-MEL-5. Further, the figures for the GI50 in the assay on K562 and with OVCAR-3 were 1.45 µM (inactive) and 1.72 µM (inactive), respectively.
Consider `CCC(=O)Nc1cccc(/N=C/c2ccc(OC(=O)/C=C\c3ccccc3)cc2)c1`, for which the GI50 in the assay on SN12C was > 75 µM (inactive); with DU-145, 15.5 µM (inactive); in the assay with MDA-MB-231, 73.3 µM (inactive); with KM12, 49.2 µM (inactive); in the assay with A498, > 75 µM (inactive); with OVCAR-5, > 75 µM (inactive). In addition, the GI50 in the assay with M14 was > 75 µM (inactive); in the assay with EKVX, 52.1 µM (inactive); in the assay on HOP-92, 35.2 µM (inactive); with HCT-15, 35.8 µM; in the assay with UO-31 it was 51.2 µM (inactive); with SK-MEL-2 it was > 75 µM (inactive). Moreover, the GI50 in the assay with NCI-H460 was 61.5 µM (inactive); in the assay with MOLT-4, 27 µM (inactive); in the assay on SF-295 it was 41.3 µM (inactive); with SW-620, > 75 µM (inactive); in the assay with MDA-N it was 58.6 µM (inactive); in the assay on SK-MEL-5, 29.9 µM (inactive). In addition, the GI50 is 39.3 µM (inactive) in the assay on K562 and 43.7 µM (inactive) with OVCAR-3.
As to `NCCCC[C@H](N)C(=O)Nc1ccc(-c2nc3ccccc3s2)cc1`, the GI50 was 24.8 µM (inactive) in the assay with SN12C; 21.7 µM (inactive) in the assay on DU-145; 15.1 µM (inactive) in the assay on MDA-MB-231; 18.5 µM (inactive) in the assay on KM12; 22.1 µM (inactive) in the assay on A498; 14.9 µM (inactive) with OVCAR-5. Further, the GI50 in the assay with M14 is 12.6 µM (inactive); in the assay with EKVX, 10.1 µM (inactive); in the assay on HOP-92 it was 34.7 µM (inactive); with HCT-15, 17.4 µM; with UO-31 it was 12.7 µM (inactive); with SK-MEL-2, 29.1 µM (inactive). Besides, the GI50 in the assay with NCI-H460 is 16.9 µM (inactive); in the assay on MOLT-4, 16.2 µM (inactive); with SF-295, 15.7 µM (inactive); in the assay on SW-620, 16.9 µM (inactive); in the assay on MDA-N it was 15.7 µM (inactive); in the assay with SK-MEL-5, 33.4 µM (inactive). Moreover, the figures for the GI50 with K562 and with OVCAR-3 were 19.6 µM (inactive) and 20.4 µM (inactive), respectively.
Take `COc1nc(N)nc2c1n(C)c[n+]2C`: the GI50 with SN12C, in the assay on DU-145, in the assay with MDA-MB-231, with KM12, in the assay on A498 and with OVCAR-5 was > 100 µM (inactive) in each case. The GI50 is > 100 µM (inactive) with M14; > 100 µM (inactive) in the assay with EKVX; > 100 µM (inactive) with HOP-92; greater than 100 µM in the assay on HCT-15; > 100 µM (inactive) in the assay on UO-31; > 100 µM (inactive) in the assay with SK-MEL-2. The GI50 in the assay on NCI-H460, in the assay on MOLT-4, in the assay with SF-295, in the assay on SW-620, in the assay on MDA-N and in the assay with SK-MEL-5 was > 100 µM (inactive) in each case. The GI50 in the assay on K562 and with OVCAR-3 was > 100 µM (inactive) throughout.
As to `COc1ccc2nc3ccccc3c(NCCN(C)CCCl)c2c1`, the GI50 in the assay with SN12C is 0.319 µM (active); in the assay with DU-145 it was 1.12 µM (active); in the assay with MDA-MB-231, 1.15 µM (inactive); in the assay on KM12 it was 0.807 µM (active); with A498, 0.984 µM (active); in the assay on OVCAR-5 it was 1.03 µM (active). The GI50 with M14 was 0.843 µM (active); with EKVX, 1.51 µM (inactive); in the assay with HOP-92, 0.622 µM (active); with HCT-15, 0.515 µM; in the assay on UO-31, 1.16 µM (inactive); in the assay with SK-MEL-2, 0.847 µM (active). In addition, the GI50 in the assay on NCI-H460 is 0.322 µM (active); with MOLT-4 it was 0.0429 µM (active); in the assay with SF-295 it was 0.728 µM (active); in the assay on SW-620, 0.175 µM (active); with MDA-N, 0.344 µM (active); with SK-MEL-5, 0.644 µM (active). For the same molecule, the GI50 is 0.337 µM (active) with K562 and 0.736 µM (active) in the assay on OVCAR-3.
On to `CC1(C)O[C@H]2OC3CCC(=O)CC3(O)[C@H]2O1` (stereo not given in full), for which the GI50 in the assay on SN12C, in the assay on DU-145, in the assay on MDA-MB-231, in the assay with KM12, in the assay with A498 and in the assay with OVCAR-5 was > 100 µM (inactive) in each case. The GI50 in the assay with M14 was > 100 µM (inactive); in the assay with EKVX it was > 100 µM (inactive); in the assay with HOP-92 it was > 73.3 µM (inactive); with HCT-15, greater than 100 µM; in the assay on UO-31 it was > 100 µM (inactive); with SK-MEL-2, > 100 µM (inactive). Further, the GI50 with NCI-H460, with MOLT-4, with SF-295, with SW-620, in the assay on MDA-N and in the assay with SK-MEL-5 was > 100 µM (inactive) each time. Moreover, the GI50 in the assay on K562 and in the assay on OVCAR-3 was > 100 µM (inactive) each time.
